Measured values reported in patent publication US10988737B2, “Clinical gene signature-based human cell culture model and uses thereof” (priority 2015, dated 2021).
Entries after “also recorded” stand apart in the source; their conditions may differ.

Columns and labels:
[1] = test system: HCV Jc1; test: HCV viral load in HCV Jc1-infected Huh7.5.1dif cells (qRT-PCR of intracellular HCV RNA); assay type: cell-based; settings: for effect on HCV viral load: HCV-infected Huh7.5.1dif cells, at the concentrations that suppress the signature
Protocol: HCV Infection of Huh7.5.1^dif cells. Cell culture-derived HCVcc Jc1 (genotype 2a/2a) (Pietschmann et al., PNAS USA, 2006, 103: 7408-7413) were generated in Huh7.5.1 cells as previously described (Wakita et al., Nat. Med., 2005, 11: 791-796). HCV Jc1E2^FLAG was purified using anti-FLAG M2 affinity gel (Sigma-Aldrich, St.Louis, Mo., USA) as described (Merz et al., J. Biol. Chem., 2011, 286: 3018-3032). HCVcc infectivity was determined by calculating the 50% tissue culture infectious doses (TCID50) as previously described (Lindenbach et al., Science, 2005, 309: 623-626). Huh7.5.1^dif cells were infected with HCV Jc1 or HCV Jc1E2^FLAG. Cell culture supernatants from mock-electroporated cells or 100 μg/mL of FLAG peptide were used for control experiments. HCV infection was assessed by qRT-PCR of intracellular HCV RNA (Xiao et al., PLoS Pathog., 2014, 10: e1004128) as well as immunostaining using HCV E2-specific AP33 antibody as previously described (Krieger et al., Hepatology, 2010, 51: 1144-1157).

[2] = test system: HCC risk signature in HCV Jc1-infected Huh7.5.1^dif cells; test: HCC risk signature in HCV Jc1-infected Huh7.5.1dif cells after antiviral or EGFR/MAPK pathway inhibitor treatment; assay type: cell-based, human; settings: three days treatment from day 7 post-infection
Protocol: HCV Infection of Huh7.5.1^dif cells. […] Huh7.5.1^dif cells were infected with HCV Jc1 or HCV Jc1E2^FLAG. […] HCV infection was assessed by qRT-PCR of intracellular HCV RNA (Xiao et al., PLoS Pathog., 2014, 10: e1004128) as well as immunostaining using HCV E2-specific AP33 antibody as previously described (Krieger et al., Hepatology, 2010, 51: 1144-1157).
Transcriptional Analyses. Liver cells were lysed in TRI-reagent (Molecular Research Center; Cincinnati, Ohio, USA), and RNA was purified using Direct-zol RNA MiniPrep (Zymo Research, Irvine, Calif., USA) according to manufacturer's instructions. RNA quantity and RNA quality were assessed using NanoDrop (Thermo Scientific, Waltham, Mass., USA) and Bioanalyzer 2100 (IIlumina, San Diego, Calif., USA) with a quality cut-off of RNA Integrity Number >8. […] Gene expression profiling was performed using 250-500 ng total RNA by using either NCOUNTER Digital Analyzer system (NanoString) or the HumanHT-12 beadarray (Illumina, San Diego, Calif., USA). HCC high risk gene expression was analyzed by qRT-PCR using specific TaqMan Gene Expression Assays (Life Technologies, Carlsbad, Calif., USA) or the ANXA3 and GPX2 primer sets previously described (Pan et al., Stem Cells, 2015, 33: 354-366 and Brault et al., Gut, 2014, 65: 44-54, respectively). The expression of GAPDH mRNA was analyzed as a reference gene using a specific TaqMan Gene Expression Assay (Life Technologies, Carlsbad, Calif., USA) or the RT2 qPCR Primer Assay (Qiagen, Hilden, Germany). Relative gene expression level was calculated by the ΔΔCt method as previously described (Schmittgen et al., Nat. Protoc., 2008, 3: 1101-1108).
Bioinformatics. Induction or suppression of HCC risk signature in HumanHT-12 beadarray (Illumina, San Diego, Calif., USA) data was determined as previously reported by using Nearest Template Prediction algorithm and Gene Set Enrichment Analysis (GSEA), implemented in GenePattern genomic analysis toolkits (Subramanian et al., PNAS USA, 2005, 102: 15545-15550; Hoshida, PLoS One, 2010, 5: e15543; Reich et al., Nat. Genet., 2006, 38: 500-501). Molecular pathway deregulations were determined in Molecular Signature Database (MSigDB, ver.4.0) (Liberzon et al., Bioinformatics, 2011, 27: 1739-1740) using GSEA (Subramanian et al., PNAS USA, 2005, 102: 15545-15550).

[3] = test system: PLS/HCC high risk genes in HCV-infected or ethanol exposed Huh7.5.1^dif cells or HBV-infected HepG2-NTCP cells; test: Epigenetic inhibitors: 32-gene PLS/HCC risk signature in infected or ethanol-treated liver cells; assay type: cell-based, human; settings: iBET 0.05 μM, WDR5-0103 100 μM
Protocol: HCV infection was assessed at day 10 by qRT-PCR of intracellular RNA as described (Xiao et al., PLoS pathogens. 2014, 10(5): e1004128).
(§1) HBV infection was assessed at day 10 post-infection by qRT-PCR quantification of HBV pregenomic RNA (pgRNA) as described in (Verrier et al., Hepatology, 2015, 63: 35-48).
Fresh medium containing ethanol and antibodies was replenished daily (Ye et al., Drug Alcohol Depend., 2010, 112: 107-116).
(§2) Transcriptional analyses. Ten days after HCV Jc1 and HBV infection or ethanol exposure, cultures were lysed using TRI-reagent (MRC) and RNA purified using the Directzol mini kit (Zymo Research). Gene expression profiling was performed using 250-500 ng total RNA by using either NCOUNTER Digital Analyzer system (NanoString) or high throughput qRT-PCR Biomark HD (Baker, Nature Meth., 2012, 9: 541-544) […]. Induction or suppression of HCC risk signature was determined by Gene Set Enrichment Analysis (GSEA), implemented in GenePattern genomic analysis toolkits.

[4] = test system: ERK1/2; test: Proteome Profiler Human Phospho-kinase Array in HCV-infected liver cells; assay type: cell-based; settings: low inhibitor concentrations
Protocol: Proteomic Analyses. For proteomic analyses, Huh7.5.1^dif cells that had undergone DMSO-mediated differentiation, were infected with HCV Jc1E2^FLAG (TCID50=10^7/mL) as described above. On day 7, receptor tyrosine kinase (RTK) phosphorylation was assessed in cell lysates using the Human Phospho-RTK Array Kit as previously described (Lupberger et al., Nat. Med., 2011, 17: 589-595; and Zona et al., Cell Host Microbe, 2013, 13: 302-313). The effect of MAPK inhibitors on signaling was confirmed using the Proteome Profiler Human Phospho-kinase Array according to manufacturer's instructions (R&D Systems). Amounts of phospho-proteins were assessed using a horseradish peroxidase-conjugated pan-phospho-tyrosine-specific antibody (R&D Systems, Minneapolis, Minn., USA) followed by chemiluminescence detection (GE Healthcare, Cleveland, Ohio, USA) according to manufacturer's instructions. The relative dot-blot density of the phosphorylated proteins in HCV Jc1E2^FLAG infected samples compared to non-infected controls was quantified using Image J software (NIH) by elliptical selection of individual dots and measuring standard deviation and integrated density.

[5] = test system: PLS/HCC high risk genes in HBV-infected HepG2-NTCP cells; test: Epigenetic inhibitors: 32-gene PLS/HCC risk signature in HBV-infected HepG2-NTCP cells; assay type: cell-based; settings: only in HBV infected cells; C646 10 μM
Protocol: as §1, §2

[6] = test system: HCC high-risk genes in human fibrotic liver tissue; test: Organotypic ex vivo culture of surgically resected human fibrotic liver tissue slices, PLS/HCC risk signature by GSEA; assay type: cell-based; settings: erlotinib 5 μM, pioglitazone 10 μM
Protocol: Liver Slices. Fresh liver tissue sections (300 μm-thick) were prepared from surgically resected fibrotic livers from HCC patients using Krumdieck Tissue Slicer MD6000 (Alabama Research and Development, Munford, Ala., USA).
Transcriptional Analyses. Liver cells were lysed in TRI-reagent (Molecular Research Center; Cincinnati, Ohio, USA), and RNA was purified using Direct-zol RNA MiniPrep (Zymo Research, Irvine, Calif., USA) according to manufacturer's instructions. RNA quantity and RNA quality were assessed using NanoDrop (Thermo Scientific, Waltham, Mass., USA) and Bioanalyzer 2100 ([…]) with a quality cut-off of RNA Integrity Number >8. […] HCC high risk gene expression was analyzed by qRT-PCR using specific TaqMan Gene Expression Assays (Life Technologies, Carlsbad, Calif., USA) or the ANXA3 and GPX2 primer sets previously described (Pan et al., Stem Cells, 2015, 33: 354-366 and Brault et al., Gut, 2014, 65: 44-54, respectively). The expression of GAPDH mRNA was analyzed as a reference gene using a specific TaqMan Gene Expression Assay (Life Technologies, Carlsbad, Calif., USA) or the RT2 qPCR Primer Assay (Qiagen, Hilden, Germany). Relative gene expression level was calculated by the ΔΔCt method as previously described (Schmittgen et al., Nat. Protoc., 2008, 3: 1101-1108). […]

## Interferon-alpha 2a
[1]; HCV Jc1-infected Huh7.5.1dif cells, three days treatment from day 7, 10 IU/mL interferon-alpha 2a or 1 nM daclatasvir + 1 μM sofosbuvir
  decrease of viral load: about 100 fold
[2]
  HCC high-risk gene expression: partial suppression
  HCC low-risk gene expression: restoration

## COC(=O)c1ccc(N2CCN(C)CC2)c(NC(=O)c2cccc(OC)c2)c1 [WDR5-0103]
[3]
  PLS/HCC high risk gene expression: suppressed

## Nc1[nH]nc2nnc(-c3c(-c4ccccc4)nn4ccccc34)cc12 [Fr180204]
[1]
  effect on HCV viral load: absent effects
[2]
  HCC high-risk gene expression: suppressed
[4]
  ERK1/2 phosphorylation (virus-induced MAPK signaling): reduced

## CC1=NN(c2ccc(C(=O)O)cc2)C(=O)/C1=C\c1ccc(-c2cc(C)c(C)cc2[N+](=O)[O-])o1 [C646]
[5]
  PLS/HCC high risk genes: suppressed

## iBET
[3]
  PLS/HCC high risk gene expression: suppressed

## C#Cc1cccc(Nc2ncnc3cc(OCCOC)c(OCCOC)cc23)c1 [Erlotinib]
[1]
  effect on HCV viral load: did not modify
[2]
  HCC high-risk gene expression: suppressed
[6]
  PLS / HCC high-risk genes in ex vivo liver tissue: effectively suppress; also recorded: reverted
